Reference: patent publication US20240391862A1, “(1,4,5-TRISUBSTITUTED-1H-PYRAZOL-3-YL)OXY-2-ALKOXY ALKYL ACIDS AND THEIR DERIVATIVES, THEIR SALTS AND THEIR USE AS HERBICIDAL AGENTS” (Bayer AKtiengesellschaft, priority 2021, published 2024)

Experiments:
SETVI = assay: Post-emergence herbicidal effect, greenhouse pot test; type: in vivo, Setaria viridis
In short: (§1)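 Sandy loam pots, greenhouse. One-leaf stage (2–3 wk after sowing) foliar spray; WP/EC in water + 0.5% additive, 600 l/ha; 20–320 g/ha. Visual score ~3 wk, 0–100% vs untreated.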

POLCO = assay: as above; type: in vivo, Fallopia convolvulus
In short: as §1

ALOMY = assay: as above; type: in vivo, Alopecurus myosuroides; conditions: 320 g/ha, visual rating about 3 weeks after treatment
In short: as §1

ABUTH = assay: as above; type: in vivo, Abutilon theophrasti; conditions: visual rating about 3 weeks after treatment
In short: as §1

ECHCG = assay: as above; type: in vivo, Echinochloa crus-galli
In short: as §1

AVEFA = assay: as above; type: in vivo, Avena fatua; conditions: visual rating about 3 weeks after treatment
In short: as §1

AMARE = assay: as above; type: in vivo, Amaranthus retroflexus; conditions: 320 g/ha, visual rating about 3 weeks after treatment
In short: as §1

ZEAMX = assay: Post-emergence herbicidal effect and crop plant compatibility, greenhouse pot test; type: in vivo, Zea mays; conditions: one-leaf stage, rated visually after about 3 weeks vs untreated controls
In short: (§2)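 Greenhouse pot test: weeds and crops sown in sandy loam, sprayed post-emergence at one-leaf stage (2–3 weeks after sowing) with WP or EC formulations plus 0.5% additive at 600 l/ha water, rates 20–320 g/ha. Visual rating about 3 weeks later versus untreated controls (100% = dead, 0% = as control).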

PHBPU = assay: Post-emergence herbicidal effect, greenhouse pot test; type: in vivo, Ipomoea purpurea
In short: as §1

KCHSC = assay: as above; type: in vivo
In short: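 Greenhouse plants in sandy loam, sprayed post-emergence at the one-leaf stage (2–3 weeks after sowing) with WP or EC formulations in water plus 0.5% additive at 600 l/ha. Rates 20 to 320 g/ha. Activity rated visually after about 3 weeks against untreated controls (0% like control, 100% dead).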

DIGSA = assay: as above; type: in vivo, Digitaria sanguinalis; conditions: 320 g/ha, visual rating about 3 weeks after treatment
In short: as §1

VIOTR = assay: as above; type: in vivo, Viola tricolor
In short: as §1

TRZAS = assay: Post-emergence herbicidal effect and crop plant compatibility, greenhouse pot test; type: in vivo, Triticum aestivum; conditions: Triticum aestivum, 504 h, 20 g/ha, one-leaf stage, rated visually after about 3 weeks vs untreated controls, read-out: Post-emergence effect at 20 g/ha against TRZAS in %
In short: as §2

LOLRI = assay: Post-emergence herbicidal effect, greenhouse pot test; type: in vivo, Lolium rigidum
In short: as §1

VERPE = assay: as above; type: in vivo, Veronica persica
In short: as §1

MATIN = assay: as above; type: in vivo, Tripleurospermum inodorum; conditions: Tripleurospermum inodorum, 504 h, read-out: Post-emergence effect against MATIN in %
In short: as §1

[1] = 504 h, 320 g/ha, read-out: Post-emergence effect against KCHSC in %

COC(=O)C(OC)Oc1nn(-c2ccccc2F)c(-c2ccc(F)nc2)c1C1CC1 (centres unmarked) [Example I-71]
pest or weed control at 80 g/ha (SETVI; Setaria viridis, 504 h, 80 g/ha, read-out: Post-emergence effect against SETVI in %): 80% | pest or weed control at 320 g/ha (SETVI; Setaria viridis, 504 h, 320 g/ha, read-out: Post-emergence effect against SETVI in %): 90% | pest or weed control at 80 g/ha (POLCO; Fallopia convolvulus, 504 h, 80 g/ha, read-out: Post-emergence effect against POLCO in %): 80% | pest or weed control at 320 g/ha (POLCO; Fallopia convolvulus, 504 h, 320 g/ha, read-out: Post-emergence effect against POLCO in %): 80% | pest or weed control at 320 g/ha (ALOMY; Alopecurus myosuroides, 504 h, read-out: Post-emergence effect against ALOMY): 90% | pest or weed control at 80 g/ha (ABUTH; Abutilon theophrasti, 504 h, 80 g/ha, read-out: Post-emergence effect against ABUTH): 90% | pest or weed control at 320 g/ha (ABUTH; Abutilon theophrasti, 504 h, 320 g/ha, read-out: Post-emergence effect against ABUTH): 90% | pest or weed control at 20 g/ha (ECHCG; Echinochloa crus-galli, 504 h, 20 g/ha, visual rating about 3 weeks after treatment, read-out: Post-emergence effect against ECHCG): 90% | pest or weed control at 80 g/ha (ECHCG; Echinochloa crus-galli, 504 h, 80 g/ha, read-out: Post-emergence effect against ECHCG in %): 90% | pest or weed control at 320 g/ha (ECHCG; Echinochloa crus-galli, 504 h, 320 g/ha, read-out: Post-emergence effect against ECHCG in %): 90% | pest or weed control at 320 g/ha (AVEFA; Avena fatua, 504 h, 320 g/ha, read-out: Post-emergence effect against AVEFA): 90% | pest or weed control at 320 g/ha (AMARE; Amaranthus retroflexus, 504 h, read-out: Post-emergence effect against AMARE): 80% | plant injury at 20 g/ha (ZEAMX; Zea mays, 504 h, 20 g/ha, read-out: Post-emergence effect at 20 g/ha against ZEAMX in %): 10% | pest or weed control at 20 g/ha (PHBPU; Ipomoea purpurea, 504 h, 20 g/ha, read-out: Post-emergence effect against PHBPU in %): 80% | pest or weed control at 80 g/ha (PHBPU; Ipomoea purpurea, 504 h, 80 g/ha, read-out: Post-emergence effect against PHBPU in %): 90% | pest or weed control at 320 g/ha (PHBPU; Ipomoea purpurea, 504 h, 320 g/ha, read-out: Post-emergence effect against PHBPU in %): 90% | pest or weed control at 80 g/ha (KCHSC; 504 h, 80 g/ha, read-out: Post-emergence effect against KCHSC in %): 80% | pest or weed control at 320 g/ha (KCHSC; [1]): 90% | pest or weed control at 320 g/ha (DIGSA; Digitaria sanguinalis, 504 h, read-out: Post-emergence effect against DIGSA): 90% | pest or weed control at 20 g/ha (VIOTR; Viola tricolor, 504 h, 20 g/ha, read-out: Post-emergence effect against VIOTR in %): 90% | pest or weed control at 80 g/ha (VIOTR; Viola tricolor, 504 h, 80 g/ha, read-out: Post-emergence effect against VIOTR in %): 90% | pest or weed control at 320 g/ha (VIOTR; Viola tricolor, 504 h, 320 g/ha, read-out: Post-emergence effect against VIOTR in %): 90% | percent crop injury (phytotoxicity) to wheat, post-emergence at 20 g/ha (TRZAS): 20% | pest or weed control at 320 g/ha (LOLRI; Lolium rigidum, 504 h, 320 g/ha, read-out: Post-emergence effect against LOLRI in %): 90% | pest or weed control at 80 g/ha (VERPE; Veronica persica, 504 h, 80 g/ha, read-out: Post-emergence effect against VERPE in %): 90% | pest or weed control at 320 g/ha (VERPE; Veronica persica, 504 h, 320 g/ha, read-out: Post-emergence effect against VERPE in %): 90% | pest or weed control at 80 g/ha (MATIN; 80 g/ha): 80% | pest or weed control at 320 g/ha (MATIN; 320 g/ha): 80%

COC(Oc1nn(-c2ncccc2F)c(-c2cncc(F)c2)c1C1CC1)C(=O)O (centres unmarked) [Example I-85]
Post-emergence effect against SETVI in % (SETVI; 80 g/ha): 90% | Post-emergence effect against SETVI in % (SETVI; 320 g/ha): 90% | Post-emergence effect against POLCO in % (POLCO; 80 g/ha): 90% | Post-emergence effect against POLCO in % (POLCO; 320 g/ha): 90% | pest or weed control at 20 g/ha (POLCO; Fallopia convolvulus, 504 h, 20 g/ha, read-out: Post-emergence effect against POLCO in %): 80% | Post-emergence effect against ALOMY (ALOMY): 90% | Post-emergence effect against ABUTH (ABUTH; 80 g/ha): 80% | Post-emergence effect against ABUTH (ABUTH; 320 g/ha): 90% | Post-emergence effect against ECHCG (ECHCG; 20 g/ha, visual rating about 3 weeks after treatment): 90% | Post-emergence effect against ECHCG in % (ECHCG; 80 g/ha): 90% | Post-emergence effect against ECHCG in % (ECHCG; 320 g/ha): 90% | Post-emergence effect against AVEFA (AVEFA; 80 g/ha): 90% | Post-emergence effect against AVEFA (AVEFA; 320 g/ha): 90% | Post-emergence effect against AMARE (AMARE): 80% | Post-emergence effect at 20 g/ha against ZEAMX in % (ZEAMX; 20 g/ha): 0% | plant injury at 80 g/ha (ZEAMX; Zea mays, 504 h, 80 g/ha, read-out: Post-emergence effect at 80 g/ha against ZEAMX in %): 20% | Post-emergence effect against PHBPU in % (PHBPU; 20 g/ha): 80% | Post-emergence effect against PHBPU in % (PHBPU; 80 g/ha): 90% | Post-emergence effect against PHBPU in % (PHBPU; 320 g/ha): 90% | Post-emergence effect against KCHSC in % (KCHSC; 80 g/ha): 90% | Post-emergence effect against KCHSC in % (KCHSC; 320 g/ha): 90% | Post-emergence effect against DIGSA (DIGSA): 90% | Post-emergence effect against VIOTR in % (VIOTR; 80 g/ha): 80% | Post-emergence effect against VIOTR in % (VIOTR; 320 g/ha): 90% | percent crop injury (phytotoxicity) to wheat, post-emergence at 20 g/ha (TRZAS): 0% | Post-emergence effect against LOLRI in % (LOLRI; 80 g/ha): 80% | Post-emergence effect against LOLRI in % (LOLRI; 320 g/ha): 90% | Post-emergence effect against VERPE in % (VERPE; 320 g/ha): 90%

COC(=O)C(OC)Oc1nn(-c2ncccc2F)c(-c2ccc(F)nc2)c1C1CC1 (centres unmarked) [Example I-107]
Post-emergence effect against SETVI in % (SETVI; 320 g/ha): 90% | Post-emergence effect against POLCO in % (POLCO; 80 g/ha): 90% | Post-emergence effect against POLCO in % (POLCO; 320 g/ha): 90% | Post-emergence effect against ALOMY (ALOMY): 100% | Post-emergence effect against ABUTH (ABUTH; 320 g/ha): 80% | Post-emergence effect against ECHCG in % (ECHCG; 320 g/ha): 90% | Post-emergence effect against AVEFA (AVEFA; 320 g/ha): 90% | Post-emergence effect against AMARE (AMARE): 80% | Post-emergence effect at 20 g/ha against ZEAMX in % (ZEAMX; 20 g/ha): 0% | Post-emergence effect at 80 g/ha against ZEAMX in % (ZEAMX; 80 g/ha): 0% | Post-emergence effect against PHBPU in % (PHBPU; 80 g/ha): 80% | Post-emergence effect against PHBPU in % (PHBPU; 320 g/ha): 80% | pest or weed control at 320 g/ha (KCHSC; [1]): 90% | Post-emergence effect against DIGSA (DIGSA): 80% | Post-emergence effect against VIOTR in % (VIOTR; 320 g/ha): 90% | percent crop injury (phytotoxicity) to wheat, post-emergence at 20 g/ha (TRZAS): 20% | Post-emergence effect against LOLRI in % (LOLRI; 320 g/ha): 90% | Post-emergence effect against VERPE in % (VERPE; 320 g/ha): 80%
